Read-outs that look alike come from different tables or passages of the source. Starred links: 1 amine or outer side, 2 acyl side, 3 side chain; linkers in the order of their positions; H or OH if unused. Non-standard residues stand in square brackets, D forms with d. Residues, ends and D or L forms follow the SMILES beside them. Groups on a side chain read outwards from the residue. *: point of attachment. C18 diacid = O=C(O)CCCCCCCCCCCCCCCCC(=O)*; γGlu = O=C(O)[C@H](CCC(=O)[*:2])N[*:1]; εLys = N[C@@H](CCCCN[*:1])C(=O)[*:2]; AEEA = NCCOCCOCC(=O)O; Aib = CC(C)(N)C(=O)O
Assays:
human GLP-1 receptor = target: T1, human GLP-1 receptor (Homo sapiens, UniProt P43220); test: In vitro functional potency, CRE luciferase reporter gene assay, whole BHK cells expressing hGLP-1R; format: cell-based; conditions: BHK CRE luc2P hGLP-1R cells
T1 construct: expressed in transfected cells; host or cells: BHK (parent line BHKTS13), clone BHK CRE luc2P hGLP-1R
T1 sequence (P43220 24-463): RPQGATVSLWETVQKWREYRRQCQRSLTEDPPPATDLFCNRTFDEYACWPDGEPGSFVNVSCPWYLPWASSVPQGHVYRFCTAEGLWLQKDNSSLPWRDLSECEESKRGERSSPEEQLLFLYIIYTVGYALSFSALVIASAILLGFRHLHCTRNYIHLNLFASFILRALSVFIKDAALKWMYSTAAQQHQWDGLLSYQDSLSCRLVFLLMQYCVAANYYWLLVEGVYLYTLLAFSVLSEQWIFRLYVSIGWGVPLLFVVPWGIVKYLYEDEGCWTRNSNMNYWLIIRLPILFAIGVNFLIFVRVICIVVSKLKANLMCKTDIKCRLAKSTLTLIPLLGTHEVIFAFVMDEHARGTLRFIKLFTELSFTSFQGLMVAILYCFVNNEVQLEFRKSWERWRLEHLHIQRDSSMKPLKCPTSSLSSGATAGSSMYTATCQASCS
Procedure: (§1) The in vitro functional potency is the measure of target receptor activation in a whole cell assay.
(§2) In vitro functional potency was determined by measuring the response of the target receptor in a reporter gene assay in individual cell lines. […] When the respective receptor is activated, it results in the production of cAMP, which in turn results in expression of the luciferase protein. When assay incubation is completed, luciferase substrate (luciferin) is added resulting in the enzymatic conversion of luciferin to oxyluciferin and producing bioluminescence. The luminescence is measured as the readout for the assay.
(§3) The cells lines used in these assays were BHK cells with BHKTS13 as a parent cell line. The cell lines were derived from a clone containing the CRE luciferase element and were established by further transfection with the respective human receptor to obtain the relevant cell line: BHK CRE luc2P hGLP-1R or BHK CRE luc2P hGIPR. The cells were cultured at 37° C. with 5% CO2 in Cell Culture Medium. They were aliquoted and stored in liquid nitrogen. The cells were kept in continuous culture and were seeded out the day before each assay.
(§4) GLP-1R Cell Culture Medium consisted of DMEM medium with 10% FBS, 500 μg/mL G418, and 300 μg/mL hygromycin. GIPR Cell Culture Medium consisted of DMEM medium with 10% FBS, 400 μg/mL G418, and 300 μg/mL hygromycin. Assay Buffer consisted of DMEM w/o phenol red, 10 mM Hepes, 1× Glutamax. 1% ovalbumin, and 0.1% Pluronic F-68 with the addition of HSA at twice the final assay concentration.
(§5) Procedure • 1) Cells were plated at 5000 cells/well and incubated overnight in the assay plate. • 2) Cells were washed once in DPBS. • 3) Stocks of the test compounds and reference compounds in concentrations ranging from […] were diluted 1:150 in Assay Buffer. Compounds were then diluted 1:10 in column 1 of a 96 deep well dilution plate and then carried across the row creating a 3.5 fold, 12 point dilution curve. • 4) Assay Buffer (50 μl aliquot) with or without HSA was added to each well in the assay plate. • 5) A 50 μl aliquot of compound or blank was transferred from the dilution plate to the assay plate containing the Assay Buffer with or without HSA. • 6) The assay plate was incubated for 3 h in a 5% CO2 incubator at 37° C. • 7) The cells were washed once with DPBS. • 8) A 100 μl aliquot of DPBS was added to each well of the assay plate. • 9) A 100 μl aliquot of steadylite plus reagent (light sensitive) was added to each well of the assay plate. • 10) Each assay plate was covered with aluminum foil to protect it from light and shaken at 250 RPM for 30 min at room temperature. • 11) Each assay plate was read in a microtiter plate reader.
(§6) The data from the microtiter plate reader was first regressed in an Excel in order to calculate the x-axis, log scale concentrations based on the individual test compound's stock concentration and the dilutions of the assay. […] The software performs a non-linear regression (log(agonist) vs response). A minimum of two replicates was measured for each sample. The reported values are averages of the replicates.

human GIP receptor = target: T2, human GIP receptor (Homo sapiens, UniProt P48546); test: In vitro functional potency, CRE luciferase reporter gene assay, whole BHK cells expressing hGIPR; format: cell-based; conditions: BHK CRE luc2P hGIPR cells
T2 construct: expressed in transfected cells; host or cells: BHK (parent line BHKTS13), clone BHK CRE luc2P hGIPR
T2 sequence (P48546 22-466): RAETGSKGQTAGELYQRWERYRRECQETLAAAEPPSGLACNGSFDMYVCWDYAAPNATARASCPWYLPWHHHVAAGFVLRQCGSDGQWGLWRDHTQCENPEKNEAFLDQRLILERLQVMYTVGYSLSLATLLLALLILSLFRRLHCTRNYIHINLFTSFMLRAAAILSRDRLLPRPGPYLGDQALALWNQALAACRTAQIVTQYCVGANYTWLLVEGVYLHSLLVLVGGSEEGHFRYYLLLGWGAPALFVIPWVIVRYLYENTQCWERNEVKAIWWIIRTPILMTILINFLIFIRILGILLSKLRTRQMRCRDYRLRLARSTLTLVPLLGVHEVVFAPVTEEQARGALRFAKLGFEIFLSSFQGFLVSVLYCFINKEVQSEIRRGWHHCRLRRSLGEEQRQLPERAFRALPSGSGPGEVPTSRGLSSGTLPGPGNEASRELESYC
Procedure: as §1, §2, §3, §4, §5, §6

[1] = 0% HSA, read-out: hGLP-1R, CRE Luc 0% HSA EC50
[2] = hGLP-1R, CRE Luc 1% HSA EC50, 1% HSA
[3] = 0% HSA, read-out: hGIPR, CRE Luc 0% HSA EC50
[4] = hGIPR, CRE Luc 1% HSA EC50, 1% HSA

| Compound | EC50 (human GLP-1 receptor; [1]) [nM] | EC50 (human GLP-1 receptor; [2]) [nM] | EC50 (human GIP receptor; [3]) [nM] | EC50 (human GIP receptor; [4]) [nM] |
| --- | --- | --- | --- | --- |
| CC(C)C[C@H](NC(=O)[C@H](CC(C)C)NC(=O)[C@H](Cc1c[nH]c2ccccc12)NC(=O)[C@H](CC(N)=O)NC(=O)[C@@H](NC(=O)[C@H](Cc1ccccc1)NC(=O)[C@H](C)NC(=O)[C@H](CCC(N)=O)NC(=O)[C@H](C)NC(=O)[C@H](C)NC(=O)[C@H](CCC(N)=O)NC(=O)[C@H](CCCCNC(=O)[C@@H](N)CCCCNC(=O)[C@@H](N)CCCCNC(=O)CC[C@H](NC(=O)CCCCCCCCCCCCCCCCC(=O)O)C(=O)O)NC(=O)[C@H](CCC(=O)O)NC(=O)[C@H](CC(C)C)NC(=O)[C@H](Cc1ccc(O)cc1)NC(=O)[C@H](Cc1ccc(O)cc1)NC(=O)[C@H](CO)NC(=O)[C@H](Cc1ccc(O)cc1)NC(=O)[C@H](CC(=O)O)NC(=O)[C@H](CO)NC(=O)[C@@H](NC(=O)[C@H](Cc1ccccc1)NC(=O)[C@@H](NC(=O)CNC(=O)[C@H](CCC(=O)O)NC(=O)C(C)(C)NC(=O)[C@@H](N)Cc1ccc(O)cc1)[C@@H](C)O)[C@@H](C)O)C(C)C)C(=O)N[C@@H](C)C(=O)NCC(=O)NCC(=O)N1CCC[C@H]1C(=O)N[C@@H](CO)C(=O)N[C@@H](CO)C(=O)NCC(=O)N[C@@H](C)C(=O)N1CCC[C@H]1C(=O)N1CCC[C@H]1C(=O)N1CCC[C@H]1C(=O)N[C@@H](CO)C(=O)O [Compound No. 5] (H-Y[Aib]EGTFTSDYSYYLEK([εLys-εLys-γGlu-C18 diacid])QAAQAFVNWLLAGGPSSGAPPPS-OH; N-terminus assumed) | 0.0094 | 0.625 | 0.0142 | 0.362 |
| CC[C@H](C)[C@H](NC(=O)[C@H](CO)NC(=O)[C@H](Cc1ccc(O)cc1)NC(=O)[C@H](CC(=O)O)NC(=O)[C@H](CO)NC(=O)[C@@H](NC(=O)[C@H](Cc1ccccc1)NC(=O)[C@@H](NC(=O)CNC(=O)[C@H](CCC(=O)O)NC(=O)C(C)(C)NC(=O)[C@@H](N)Cc1ccc(O)cc1)[C@@H](C)O)[C@@H](C)O)C(=O)N[C@@H](Cc1ccc(O)cc1)C(=O)N[C@@H](CC(C)C)C(=O)N[C@@H](CCC(=O)O)C(=O)N[C@@H](CCCCNC(=O)[C@@H](N)CCCCNC(=O)[C@@H](N)CCCCNC(=O)CC[C@H](NC(=O)CCCCCCCCCCCCCCCCC(=O)O)C(=O)O)C(=O)N[C@@H](CCC(N)=O)C(=O)N[C@@H](C)C(=O)N[C@@H](C)C(=O)N[C@@H](CCCNC(=N)N)C(=O)N[C@@H](CCC(=O)O)C(=O)N[C@@H](Cc1ccccc1)C(=O)N[C@H](C(=O)N[C@@H](CC(N)=O)C(=O)N[C@@H](Cc1c[nH]c2ccccc12)C(=O)N[C@@H](CC(C)C)C(=O)N[C@@H](CC(C)C)C(=O)N[C@@H](C)C(=O)NCC(=O)NCC(=O)N1CCC[C@H]1C(=O)N[C@@H](CO)C(=O)N[C@@H](CO)C(=O)NCC(=O)N[C@@H](C)C(=O)N1CCC[C@H]1C(=O)N1CCC[C@H]1C(=O)N1CCC[C@H]1C(=O)N[C@@H](CO)C(N)=O)C(C)C [Compound No. 6] (H-Y[Aib]EGTFTSDYSIYLEK([εLys-εLys-γGlu-C18 diacid])QAAREFVNWLLAGGPSSGAPPPS-NH2) | 0.0034 | 0.243 | 0.0185 | 0.434 |
| CC[C@H](C)[C@H](NC(=O)[C@H](CO)NC(=O)[C@H](Cc1ccc(O)cc1)NC(=O)[C@H](CC(=O)O)NC(=O)[C@H](CO)NC(=O)[C@@H](NC(=O)[C@H](Cc1ccccc1)NC(=O)[C@@H](NC(=O)CNC(=O)[C@H](CCC(=O)O)NC(=O)C(C)(C)NC(=O)[C@@H](N)Cc1ccc(O)cc1)[C@@H](C)O)[C@@H](C)O)C(=O)N[C@@H](Cc1ccc(O)cc1)C(=O)N[C@@H](CC(C)C)C(=O)N[C@@H](CCC(=O)O)C(=O)N[C@@H](CCCCNC(=O)COCCOCCNC(=O)COCCOCCNC(=O)CC[C@H](NC(=O)CCCCCCCCCCCCCCCCC(=O)O)C(=O)O)C(=O)N[C@@H](CCC(N)=O)C(=O)N[C@@H](C)C(=O)N[C@@H](C)C(=O)N[C@@H](CCCNC(=N)N)C(=O)N[C@@H](CCC(=O)O)C(=O)N[C@@H](Cc1ccccc1)C(=O)N[C@H](C(=O)N[C@@H](CC(N)=O)C(=O)N[C@@H](Cc1c[nH]c2ccccc12)C(=O)N[C@@H](CC(C)C)C(=O)N[C@@H](CC(C)C)C(=O)N[C@@H](C)C(=O)NCC(=O)NCC(=O)N1CCC[C@H]1C(=O)N[C@@H](CO)C(=O)N[C@@H](CO)C(=O)NCC(=O)N[C@@H](C)C(=O)N1CCC[C@H]1C(=O)N1CCC[C@H]1C(=O)N1CCC[C@H]1C(=O)N[C@@H](CO)C(N)=O)C(C)C [Compound No. 7] (H-Y[Aib]EGTFTSDYSIYLEK([AEEA-AEEA-γGlu-C18 diacid])QAAREFVNWLLAGGPSSGAPPPS-NH2) | 0.0042 | 0.513 | 0.0287 | 0.687 |
| CC[C@H](C)[C@H](NC(=O)[C@H](Cc1ccccc1)NC(=O)[C@H](CCC(=O)O)NC(=O)[C@H](CCCNC(=N)N)NC(=O)[C@H](C)NC(=O)[C@H](C)NC(=O)[C@H](CCC(N)=O)NC(=O)[C@H](CCCCNC(=O)[C@@H](N)CCCCNC(=O)[C@@H](N)CCCCNC(=O)CC[C@H](NC(=O)CCCCCCCCCCCCCCCCC(=O)O)C(=O)O)NC(=O)[C@H](CCC(=O)O)NC(=O)[C@H](CC(C)C)NC(=O)[C@H](Cc1ccc(O)cc1)NC(=O)[C@@H](NC(=O)[C@H](CO)NC(=O)[C@H](Cc1ccc(O)cc1)NC(=O)[C@H](CC(=O)O)NC(=O)[C@H](CO)NC(=O)[C@@H](NC(=O)[C@H](Cc1ccccc1)NC(=O)[C@@H](NC(=O)CNC(=O)[C@H](CCC(=O)O)NC(=O)C(C)(C)NC(=O)[C@@H](N)Cc1ccc(O)cc1)[C@@H](C)O)[C@@H](C)O)[C@@H](C)CC)C(=O)N[C@@H](CC(N)=O)C(=O)N[C@@H](Cc1c[nH]c2ccccc12)C(=O)N[C@@H](CC(C)C)C(=O)N[C@@H](CC(C)C)C(=O)N[C@@H](C)C(=O)NCC(=O)NCC(=O)N1CCC[C@H]1C(=O)N[C@@H](CO)C(=O)N[C@@H](CO)C(=O)NCC(=O)N[C@@H](C)C(=O)N1CCC[C@H]1C(=O)N1CCC[C@H]1C(=O)N1CCC[C@H]1C(=O)N[C@@H](CO)C(N)=O [Compound No. 8] (H-Y[Aib]EGTFTSDYSIYLEK([εLys-εLys-γGlu-C18 diacid])QAAREFINWLLAGGPSSGAPPPS-NH2) | 0.0023 | 0.0821 | 0.0067 | 0.191 |

From patent publication US20230120597A1, “CO-AGONISTS AT GLP-1 AND GIP RECEPTORS SUITABLE FOR ORAL DELIVERY” (Novo Nordisk A/S, priority 2020, published 2023)
